The values below come from US11384385B2, “Method for predicting therapeutic effects of irinotecan, and kit for same” (Yamaguchi University, priority 2017, dated 2022).

Where two headings read alike, the source gives them in different places.

The conditions of data set [1]: FIG. 5, Table 2 of WO2016/132736, cited from earlier work.
For data set [2], the system named is colorectal cancer (stage IV). In words: Therapeutic effect of irinotecan on cancer evaluated by RECIST (CR and PR = therapeutic effect), by rs1980576 genotype. It counts as in vivo, human. To be noted: for therapeutic effect observed (CR+PR): rs1980576 wild-type homozygote (A/A). As for the experimental part: Analysis objects were 140 cases among 155 Japanese colorectal cancer (stage IV) cases who were administered with irinotecan excluding cases who were administered with a reduced amount of irinotecan, UGT1A1*6 (homo), UGT1A1*28 (homo), and their compound heterogeneous cases and determined for the therapeutic effect and 66 subpopulation cases (FOLFIRI cases with a unified regimen) among the 140 cases. FOLFIRI is one of standard treatments for colorectal cancer and using irinotecan simultaneous with treatment with a combination of fluorouracil and 1-leucovorin. The 140 cases were Japanese colorectal cancer patients treated with a regimen including irinotecan. The regimen in this Example includes combination therapy, in addition to irinotecan, with FOLFIRI using fluorouracil and 1-leucovorin, […] using capecitabine, IRIS using S-1, or an anti-EGFR antibody agent ([…], Cetuximab, or Panitumumab). Comprehensive analysis (WES analysis) of the prepared genome DNA was performed by the same method as described in WO2016/132736 (PCT/JP2016/000793). That is, three types of cases: cases (n=5) as a control group in which UGT1A genetic polymorphisms (seven positions of UGT1A1*6, *27, and *28, UGT1A7 (387T>G and 622T>C), UGT1A9*1b, and UGT1A1*60) were all homozygotes being low in side effect risk and no side effect from irinotecan were observed; cases (n=5) as a case group in which although the UGT1A genetic polymorphisms were the same as those in the control group, side effects (Grade 3, entire course) were observed; and cases (n=5) in which any of the UGT1A genetic polymorphisms was a heterozygote and a side effect was observed from the first administration of irinotecan (Grade 4), were established, and the case and control groups were analyzed. […] The genetic polymorphisms and the side effect frequency and the response rates were statistically analyzed using a Cochran-Armitage trend test. […] Accordingly, 11 single nucleotide polymorphisms in total: the above-mentioned single nucleotide polymorphisms a) to f) and single nucleotide polymorphisms g) UGT1A1*6, h) UGT1A1*60, i) UGT1A7 (387T>G), j) UGT1A7 (622T>C), and k) UGT1A9*1b known to be involved in side effects from irinotecan, were analyzed for a relationship with the therapeutic effects of irinotecan on cancer. […] CR and PR were determined to have a therapeutic effect; and SD and PD were determined to have no therapeutic effect. […] FIGS. 1 and 2 show the analysis results of 140 cases determined for therapeutic effects, and FIGS. 3 and 4 show the analysis results of 66 subpopulation cases among the 140 cases. […] In addition, in FIGS. 1 to 4, “Odds ratio” is calculated as an odds ratio of the therapeutic effects (efficacy) of irinotecan on cancer in a wild-type homozygote or a mutant-type homozygote by Fisher's exact test.

Data set [3] has as its system cancer. The note with it: general response rate; cited from earlier work.
Setting [4] is: rs1980576 mutant-type homozygote (G/G).

Regarding `CCc1c2c(nc3ccc(OC(=O)N4CCC(N5CCCCC5)CC4)cc13)-c1cc3c(c(=O)n1C2)COC(=O)[C@]3(O)CC` [irinotecan, (S)-4,11-diethyl-3,4,12,14-tetrahydro-4-hydroxy-3,14-dioxo-1H-pyrano[3′,4′:6,7]indolizino[1,2-b]quinolin-9-yl ester, CPT-11,1,4′-bipiperidine-1′-carboxylic acid], the results for the “risk of side effects” value in data set [1] (rs1980576 heterozygote (A/G)), in data set [1] (setting [4]) and in data set [1] (rs1980576 wild-type homozygote (A/A)) were “low”, “high” and “low”, respectively. In addition, the “possibility of a therapeutic effect of irinotecan on cancer” value in data set [2] (rs1980576 heterozygote (A/G)) was “high”. Besides, the therapeutic effect result in data set [2] (setting [4]) is reported as “low”. For the same molecule, the “therapeutic effect observed (CR+PR)” value in data set [2] (66 FOLFIRI cases only (FIG. 3)) turned out to be 43%; in data set [2] (140 Japanese colorectal cancer cases, regimen including irinotecan (FIG. 1)) it was 38%. Moreover, the “response rate of irinotecan generally” value in data set [3] was “about 32%”.
